{"source": "patent US12171766B2", "about": "“Methods of treating patients suffering from brain injury and methods of increasing the value of the extended Glasgow Outcome Scale of patients suffering from brain injury” (VERINOS OPERATIONS GMBH, priority 2021, dated 2024)", "test_system": "adult intensive care patients with acute moderate and severe TBI", "test": "NOSTRA phase III trial: Extended Glasgow Outcome Scale (eGOS) at 3 and 6 months, Ronopterin 17 mg/kg infused over 48 hours vs placebo, incl. post hoc subgroup analyses", "type": "in vivo, human", "conditions": "for Good Recovery (eGOS ≥ 7) at 6 months, Odds ratio, 95% CI / Improvement in eGOS from 3 to 6 months, at least + 1 eGOS level, Odds ratio, 95% CI / Good Recovery (eGOS ≥ 7) at 3 months, Odds ratio, 95% CI: vs placebo", "procedure": "A phase III trial of Ronopterin infusion to adult TBI patients (18-60 years) with acute moderate and severe TBI was performed. Based on the results of the earlier phase II study, the NOSTRA (NO Synthase in TRAumatic Brain Injury) phase III trial was designed to detect clinically relevant differences in clinical outcome (Extended Glasgow Outcome Score at 6 months after injury) as primary endpoint.\nNOSTRA III was a multicentre, prospective, two parallel groups, blinded, placebo-controlled, randomised phase III trial of Ronopterin infusion for 48 hours in adult intensive care patients with acute moderate and severe TBI. […] The detailed study protocol is described by Tegtmeier et al. Efficacy of Ronopterin (VAS203) in Patients with Moderate and Severe Traumatic Brain Injury (NOSTRA phase III trial): study protocol of a confirmatory, placebo-controlled, randomised, double blind, multi-centre study. Trials. 2020. A total of 224 evaluable patients with moderate and severe TBI were enrolled in 32 centres in Austria, France, Germany, Spain, and United Kingdom. The trial started on 24 Aug. 2016 with last-patient last-visit on 17 Jun. 2020.\nPatients between 18 and 60 years of age with Glasgow Coma Score≥3 requiring intracranial pressure (ICP) monitoring were enrolled. Other inclusion criteria were TBI within the last 18 hours but at least 6 hours after the injury, which were expected to survive more than 24 hours after admission.\nRonopterin and placebo (0.9% saline) were infused continuously via central venous catheter at a constant rate. A total dose of 17 mg/kg body weight of Ronopterin was infused for 48 hours (daily dose 8.5 mg/kg body weight).\nThe primary outcome was the difference between eGOS in Ronopterin and placebo treated patients at 6 months after trauma. The eGOS was determined by a face to face meeting by trained assessors.\nThe null-hypothesis of no shift across the 8 ordered categories of eGOS for the two treatment groups was tested after six months based on a proportional odds model stratified by age (18-39 years and 40-60 years). The treatment effect was estimated using ordinal Logistic regression model as the (proportional) odds ratio of Ronopterin versus Placebo. Treatment and age (18-39 years and 40-60 years) were included in the model. The proportional odds assumption was tested using a Chi-Square Score Test.\nAs secondary efficacy endpoint the eGOS at 3 months was analysed using the same statistics.\nThe main objective of the post hoc analyses was to estimate the effect size of VAS203 compared with placebo for the primary endpoint eGOS-I in the subgroups time to infusion ≤12 hours and >12 hours. Supportive analyses were conducted by age group (<40 years, ≥40 years) because age group was used as a stratification factor in the study. Comparability between treatment groups regarding demographics as well as severity and location of disease was investigated using similar methods as in the main CSR.\nThe proportions of patients per eGOS-I level at 3 months and at 6 months were calculated. For the change in eGOS-I over time, the proportion of patients with changes from 3 to 6 months were calculated by eGOS-I level, and in addition categorised as decreased (i.e. any decrease in eGOS-I level from 3 to 6 months), unchanged (i.e. no change in eGOS-I level from 3 to 6 months), and increased (i.e. any increase in eGOS-I level from 3 to 6 months).\nOrdinal logistic regression was used for the analysis of eGOS-I at 3 months and at 6 months, including treatment group and age group (<40 years, ≥40 years) as factors in the model. Estimated odds ratios for the comparison of the VAS203 and placebo groups of >1 mean that eGOS-I was higher in the VAS203 group than in the placebo group across the 8 levels, whereas odds ratios of <1 mean that eGOS-I was lower in the VAS203 group than in the placebo group. Odds ratios together with their 95% CIs were used to estimate and assess the size of the treatment effect of VAS203 compared to placebo. […]"}
{"smiles": "CC(O)C(O)C1CNc2nc(N)nc(N)c2N1", "note": "[Ronopterin, 4-Amino-(6R,S)-5,6,7,8-tetrahydro-L-biopterin]", "values": [{"measurement": "Good Recovery (eGOS ≥ 7) at 6 months, Odds ratio, 95% CI", "setting": "All females 40-60 years (so in the source), >12 hours", "result": "5.5 (0.6-53);"}, {"measurement": "Good Recovery (eGOS ≥ 7) at 6 months, Odds ratio, 95% CI", "setting": "All females, all times to infusion", "result": "2.8 (0.6-12.6); n = 44"}, {"measurement": "Improvement in eGOS from 3 to 6 months, at least + 1 eGOS level, Odds ratio, 95% CI", "setting": "All males 18-60 years and young females 18-39 years, ≤12 hours", "result": "3.4 (1.2-10.2);"}, {"measurement": "Improvement in eGOS from 3 to 6 months, at least + 1 eGOS level, Odds ratio, 95% CI", "setting": "All males 18-60 years, ≤12 hours", "result": "3.7 (1.1-12);"}, {"measurement": "Good Recovery (eGOS ≥ 7) at 6 months, Odds ratio, 95% CI", "setting": "All males plus females 18-39 years, ≤12 hours", "result": "2.4 (0.8-7.6);"}, {"measurement": "Good Recovery (eGOS ≥ 7) at 3 months, Odds ratio, 95% CI", "setting": "Female, 18-39 years, >12 hours", "result": "6.5 (0.27-161);"}, {"measurement": "Good Recovery (eGOS ≥ 7) at 6 months, Odds ratio, 95% CI", "setting": "Female, 18-39 years, >12 hours", "result": "2.3 (0.2-33);"}, {"measurement": "Improvement in eGOS from 3 to 6 months, at least + 1 eGOS level, Odds ratio, 95% CI", "setting": "Female, 18-39 years, >12 hours", "result": "0.3 (0.04-2.8);"}, {"measurement": "Good Recovery (eGOS ≥ 7) at 3 months, Odds ratio, 95% CI", "setting": "Female, 18-39 years, ≤12 hours", "result": "1.5 (0.06-41);"}, {"measurement": "Good Recovery (eGOS ≥ 7) at 6 months, Odds ratio, 95% CI", "setting": "Female, 18-39 years, ≤12 hours", "result": "6.0 (0.2-163);"}, {"measurement": "Improvement in eGOS from 3 to 6 months, at least + 1 eGOS level, Odds ratio, 95% CI", "setting": "Female, 18-39 years, ≤12 hours", "result": "1.5 (0.06-41);"}, {"measurement": "Good Recovery (eGOS ≥ 7) at 3 months, Odds ratio, 95% CI", "setting": "Female, 40-60 years, >12 hours", "result": "4.2 (0.2-102);"}, {"measurement": "Good Recovery (eGOS ≥ 7) at 6 months, Odds ratio, 95% CI", "setting": "Female, 40-60 years, >12 hours", "result": "6.2 (0.3-147);"}, {"measurement": "Improvement in eGOS from 3 to 6 months, at least + 1 eGOS level, Odds ratio, 95% CI", "setting": "Female, 40-60 years, >12 hours", "result": "1.3 (0.1-18);"}, {"measurement": "Good Recovery (eGOS ≥ 7) at 3 months, Odds ratio, 95% CI", "setting": "Female, 40-60 years, ≤12 hours", "result": "1.3 (0.02-83);"}, {"measurement": "Good Recovery (eGOS ≥ 7) at 6 months, Odds ratio, 95% CI", "setting": "Female, 40-60 years, ≤12 hours", "result": "0.3 (0.01-11.3);"}, {"measurement": "Improvement in eGOS from 3 to 6 months, at least + 1 eGOS level, Odds ratio, 95% CI", "setting": "Female, 40-60 years, ≤12 hours", "result": "0.3 (0.01-11.3);"}, {"measurement": "Good Recovery (eGOS ≥ 7) at 3 months, Odds ratio, 95% CI", "setting": "Females 18-39 years, all times to infusion", "result": "4.2 (0.4-47); n = 23"}, {"measurement": "Good Recovery (eGOS ≥ 7) at 3 months, Odds ratio, 95% CI", "setting": "Females 40-60 years, all times to infusion", "result": "5.7 (0.3-126); n = 21"}, {"measurement": "Good Recovery (eGOS ≥ 7) at 3 months, Odds ratio, 95% CI", "setting": "Male, 18-39 years, >12 hours", "result": "0.2 (0.03-0.85);"}, {"measurement": "Improvement in eGOS from 3 to 6 months, at least + 1 eGOS level, Odds ratio, 95% CI", "setting": "Male, 18-39 years, >12 hours", "result": "0.7 (0.2-1.9);"}, {"measurement": "Good Recovery (eGOS ≥ 7) at 6 months, Odds ratio, 95% CI", "setting": "Male, 18-39 years, time to infusion >12 hours", "result": "0.6 (0.2-1.6);"}, {"measurement": "Good Recovery (eGOS ≥ 7) at 6 months, Odds ratio, 95% CI", "setting": "Male, 18-39 years, time to infusion ≤12 hours", "result": "1.4 (0.3-5.9);"}, {"measurement": "Good Recovery (eGOS ≥ 7) at 3 months, Odds ratio, 95% CI", "setting": "Male, 18-39 years, ≤12 hours", "result": "0.4 (0.08-2.2);"}, {"measurement": "Improvement in eGOS from 3 to 6 months, at least + 1 eGOS level, Odds ratio, 95% CI", "setting": "Male, 18-39 years, ≤12 hours", "result": "5.4 (1.1-26);"}, {"measurement": "Good Recovery (eGOS ≥ 7) at 3 months, Odds ratio, 95% CI", "setting": "Male, 40-60 years, >12 hours", "result": "0.2 (0.02-1.4);"}, {"measurement": "Good Recovery (eGOS ≥ 7) at 6 months, Odds ratio, 95% CI", "setting": "Male, 40-60 years, >12 hours", "result": "0.6 (0.2-2.2);"}, {"measurement": "Improvement in eGOS from 3 to 6 months, at least + 1 eGOS level, Odds ratio, 95% CI", "setting": "Male, 40-60 years, >12 hours", "result": "0.98 (0.3-2.8);"}, {"measurement": "Good Recovery (eGOS ≥ 7) at 3 months, Odds ratio, 95% CI", "setting": "Male, 40-60 years, ≤12 hours", "result": "0.7 (0.01-38);"}, {"measurement": "Good Recovery (eGOS ≥ 7) at 6 months, Odds ratio, 95% CI", "setting": "Male, 40-60 years, ≤12 hours", "result": "9.0 (0.4-194);"}, {"measurement": "Improvement in eGOS from 3 to 6 months, at least + 1 eGOS level, Odds ratio, 95% CI", "setting": "Male, 40-60 years, ≤12 hours", "result": "2.3 (0.4-14.6);"}, {"measurement": "increase in eGOS levels from 3 to 6 months", "setting": "age 18-39 years, >12 hours (FIG. 7E)", "result": "up to 3 levels"}, {"measurement": "number of patients with increase in eGOS by at least 2 levels from 3 to 6 months", "setting": "age 18-39 years, >12 hours (FIG. 7G)", "result": 10}, {"measurement": "less patients with decrease in eGOS over time vs placebo: significance", "setting": "age 18-39 years, all times to infusion", "result": "not significant"}, {"measurement": "increase in eGOS levels from 3 to 6 months", "setting": "age 18-39 years, all times to infusion (FIG. 6A)", "result": "up to 3 levels"}, {"measurement": "number of patients with increase in eGOS by at least 2 levels from 3 to 6 months", "setting": "age 18-39 years, all times to infusion (FIG. 6C)", "result": 14}, {"measurement": "more patients with higher increase in eGOS over time vs placebo: significance", "setting": "age 18-39 years, all times to infusion (FIG. 6D)", "result": "not significant"}, {"measurement": "increase in eGOS levels from 3 to 6 months", "setting": "age 18-39 years, ≤12 hours (FIG. 7A)", "result": "up to 3 levels"}, {"measurement": "increase in proportion of patients with an eGOS increase by at least 1 level compared to Placebo: significance", "setting": "age 18-39 years, ≤12 hours (FIG. 7B, 7D)", "result": "significant"}, {"measurement": "number of patients with increase in eGOS by at least 2 levels from 3 to 6 months", "setting": "age 18-39 years, ≤12 hours (FIG. 7C)", "result": 4}, {"measurement": "increase in eGOS levels from 3 to 6 months", "setting": "age 40-60 years, >12 hours (FIG. 9E)", "result": "up to 4 levels"}, {"measurement": "number of patients with increase in eGOS by at least 2 levels from 3 to 6 months", "setting": "age 40-60 years, >12 hours (FIG. 9G)", "result": 5}, {"measurement": "less patients with a decrease in eGOS over time vs placebo: significance", "setting": "age 40-60 years, all times to infusion", "result": "not (statistically) significant"}, {"measurement": "increase in eGOS levels from 3 to 6 months", "setting": "age 40-60 years, all times to infusion (FIG. 8A)", "result": "up to 4 levels"}]}
